Experimental data taken from patent publication US20130096067A1, “DROSOPHILA TUMOR STEM CELL MODEL AND USES THEREOF” (priority 2011, published 2013).
Square brackets hold non-standard residues; d marks the D form. Peptide text beside a SMILES is read from it. * marks the point of attachment. Sta = CC(C)C[C@H](N)[C@@H](O)CC(=O)O; Isovaleryl = CC(C)CC(=O)*; Cbz = O=C(OCc1ccccc1)*; CH2F = FC*

System: Raf-1^gof intestinal tumors
Details: for Log2 (fold) of luciferase activity relative to DMSO controls / Fold (luciferase activity relative to DMSO controls): ICCB compounds fed in vials to flies with one-day old Raf-1^gof tumors; for Log2 (fold) of luciferase activity relative to DMSO controls / Fold (luciferase activity relative to DMSO controls) / Log2 (fold) (luciferase activity, log2 of the fold difference relative to DMSO controls) / Fold (luciferase activity, fold difference relative to DMSO controls): assessed three days later; for Fold (luciferase activity relative to DMSO controls) / Fold (luciferase activity, fold difference relative to DMSO controls): averaged from multiple wells; for Log2 (fold) (luciferase activity, log2 of the fold difference relative to DMSO controls) / Fold (luciferase activity, fold difference relative to DMSO controls): screen of 480 ICCB compounds in vials, compounds fed to flies with one-day old Raf-1^gof tumors, esg-Gal4 luciferase
Throughout, for Fold (luciferase activity relative to DMSO controls): test concentration or dose not given here.
Throughout, for Fold (luciferase activity, fold difference relative to DMSO controls): test concentration or dose not given here.
Throughout, for Log2 (fold) (luciferase activity, log2 of the fold difference relative to DMSO controls): test concentration or dose not given here.
Throughout, for Log2 (fold) of luciferase activity relative to DMSO controls: test concentration or dose not given here.

Row | Structure (SMILES) | Log2 (fold) of luciferase activity relative to DMSO controls | Fold (luciferase activity relative to DMSO controls) [fold] | Log2 (fold) (luciferase activity, log2 of the fold difference relative to DMSO controls) | Fold (luciferase activity, fold difference relative to DMSO controls) | Fold (Table 3 summary of hits, Screen ICCB, luciferase relative to DMSO, fed three consecutive days in vials) [fold]
1 | CC(C)COCC(CN(Cc1ccccc1)c1ccccc1)N1CCCC1 (stereo not drawn) [BEPRIDIL] | −0.054 | 0.963 |  |  | 
2 | CCCCCCCCCCCCCCCCOC[C@@H](O)COP(=O)([O-])OCC[N+](C)(C)C [LYSO-PAF C16] | −0.087 | 0.941 |  |  | 
3 | N#C/C(=C/c1ccc(O)c(O)c1)C(=O)NCc1ccccc1 [AG-490] |  |  | −0.272 | 0.828 | 
4 | COc1ccc(C2CNC(=O)C2)cc1OC1CCCC1 (stereo not drawn) [Rolipram] |  |  | −0.414 | 0.750 | 
5 | CCCCC[C@H](O)/C=C/C1=C(C/C=C\CCCC(=O)O)C(=O)CC1 [PROSTAGLANDIN B2] |  |  | −0.330 | 0.796 | 
6 | COc1cccc(-c2cc(=O)c3ccccc3o2)c1N [PD 98059] |  |  | −0.338 | 0.791 | 
7 | COCc1nc2c([nH]1)c(=O)n(C)c(=O)n2CC(C)C [8-methoxymethyl-IBMX] | 0.006 | 1.004 |  |  | 
8 | CCCCCC(O)CCCC(=O)O (stereo not drawn) [5-HYDROXYDECANOATE] |  |  | −0.357 | 0.781 | 
9 | CCCCCCCC(=O)OC[C@H](CO)OC(=O)CCCCCCC [1,2-DIOCTANOYL-SN-GLYCEROL] | −0.080 | 0.946 |  |  | 
10 | CCCNC(=O)[C@H]1O[C@@H]1C(=O)N[C@H](C(=O)N1CCC[C@H]1C(=O)OC)[C@@H](C)CC [CA-074-Me] | −0.114 | 0.924 |  |  | 
11 | CC[C@@]1(O)C(=O)OCc2c1cc1n(c2=O)Cc2cc3cc(O)ccc3nc2-1 [10-hydroxycamptothecin, reference compound] |  |  | −0.930 | 0.525 | 0.525
12 | Cc1coc2c1C(=O)C(=O)c1c-2ccc2c1CCCC2(C)C [Tanshinone IIA] |  |  | −0.570 | 0.674 | 
13 | C=C[C@@]1(C)CC(=O)[C@]2(O)[C@@]3(C)[C@@H](O)CCC(C)(C)[C@@H]3[C@H](O)[C@H](OC(C)=O)[C@@]2(C)O1 [forskolin] |  |  | −0.449 | 0.732 | 
14 | N#CC(=Cc1ccc2[nH]ccc2c1)C(N)=C(C#N)C#N [AG-370] |  |  | −0.559 | 0.679 | 
15 | NC(=O)c1ccc(-c2nc(-c3ccccn3)c(-c3ccc4c(c3)OCO4)[nH]2)cc1 [SB-431542] | 0.068 | 1.048 |  |  | 
16 | O=C1NC(=O)C(c2ccccc2)(c2ccccc2)N1 [PHENYTOIN] |  |  | −0.300 | 0.812 | 
17 | CN(C)C[C@H](O)Cn1c2ccc(Br)cc2c2cc(Br)ccc21 (racemic) [Wiskostatin] |  |  | −0.646 | 0.639 | 
18 | CCCCC/C=C\C\C=C/C=C/C=C/[C@@H](SC[C@H](N)C(=O)NCC(=O)O)[C@@H](O)CCCC(=O)O [LEUKOTRIENE D4] | 0.234 | 1.176 |  |  | 
19 | CC1(C)CCC(C)(C)c2cc(C(=O)Nc3ccc(C(=O)O)cc3)ccc21 [AM-580] |  |  | −0.311 | 0.806 | 
20 | O=C1CN(/N=C/c2ccc(-c3ccc([N+](=O)[O-])cc3)o2)C(O)=N1 [DANTROLENE] | −0.098 | 0.934 |  |  | 
21 | CC(C)NCC(O)c1ccc(N)c(C#N)c1 (stereo not drawn) [CIMATEROL] |  |  | −0.598 | 0.661 | 
22 | COC(=O)C1=C(C)NC(C)=C(C(=O)OCCSc2ccccc2)C1C (stereo not drawn) [PCA 4248] | −0.180 | 0.883 |  |  | 
23 | Cc1ccc(S(=O)(=O)/C=C/C#N)cc1 [BAY 11-7082] |  |  | −0.470 | 0.722 | 

Row | Structure (SMILES) | Log2 (fold) of luciferase activity relative to DMSO controls | Fold (luciferase activity relative to DMSO controls) [fold] | Log2 (fold) (luciferase activity, log2 of the fold difference relative to DMSO controls) | Fold (luciferase activity, fold difference relative to DMSO controls) | Fold (Table 3 summary of hits, Screen ICCB, luciferase relative to DMSO, fed three consecutive days in vials) [fold]
24 | CC/C=C\C/C=C\C/C=C\C/C=C\C/C=C\C/C=C\CCC(=O)O [DOCOSAHEXAENOIC ACID (22:6 n-3)] |  |  | −0.248 | 0.842 | 
25 | CCCCCCCCCCCCC/C=C/[C@@H](O)[C@H](CO)NC(=O)CCCCCCC [C8 CERAMIDE] |  |  | −0.427 | 0.744 | 
26 | O=C1Nc2ccc(I)cc2/C1=C/c1cc(Br)c(O)c(Br)c1 [GW-5074] |  |  | −0.369 | 0.774 | 
27 | CCCCC/C=C\C/C=C\CCCCCCCC(=O)NCCO [ANANDAMIDE (18:2, n-6)] | −0.101 | 0.932 |  |  | 
28 | COC(=O)C[C@H](NC(=O)[C@H](C)NC(=O)[C@@H](NC(=O)OCc1ccccc1)C(C)C)C(=O)CF [zVAD-FMK] (Cbz-Val-Ala-Asp(OMe)-CH2F) |  |  | −0.597 | 0.661 | 
29 | C[C@]12CC[C@@H]3c4ccc(O)cc4CC[C@H]3[C@@H]1CC[C@@H]2O [ESTRADIOL] | −0.160 | 0.895 |  |  | 
30 | CCCCC/C=C\C/C=C\CC1OC1C/C=C\CCCC(=O)O (stereo not drawn) [8,9-EPOXYEICOSATRIENOIC ACID] |  |  | −0.625 | 0.649 | 
31 | CCCCCCCCCCCCCCCC(=O)N[C@@H](COP(=O)(O)O)C(=O)O [L-NASPA] | 0.003 | 1.002 |  |  | 
32 | CC(C)CC(=O)N[C@H](C(=O)N[C@H](C(=O)N[C@@H](CC(C)C)[C@@H](O)CC(=O)N[C@@H](C)C(=O)N[C@@H](CC(C)C)[C@@H](O)CC(=O)O)C(C)C)C(C)C [pepstatin] (Isovaleryl-VV[Sta]A[Sta]-OH) |  |  | −0.491 | 0.711 | 
33 | CCCCCCCCC#CCC#CCC#CCCCC(=O)O [5,8,11-EICOSATRIYNOIC ACID] | 0.094 | 1.067 |  |  | 
34 | C=C1[C@@H](C)[C@H]2[C@H](Cc3ccccc3)NC(=O)[C@]23[C@H](OC(C)=O)/C=C/[C@@](C)(O)C(=O)[C@@H](C)C/C=C/[C@H]3[C@@H]1O [cytochalasin D] |  |  | −0.276 | 0.826 | 
35 | C#CCCCCCCCCCCCCCCCC(=O)O [17-OCTADECYNOIC ACID] |  |  | −0.358 | 0.780 | 
36 | Cl.NC(=S)NCCCC(N)C(=O)O [Thiocitrulline [L-Thiocitrulline HCl]] | −0.170 | 0.889 |  |  | 
37 | CCCCC/C=C\C/C=C\CCCCCCCCCC(=O)O [EICOSADIENOIC ACID (20:2 n-6)] | −0.093 | 0.938 |  |  | 
38 | COc1cc2nc(N3CCN(C(=O)c4ccco4)CC3)nc(N)c2cc1OC [prazocin] | 0.011 | 1.008 |  |  | 
39 | Nc1cc(N2CCCCC2)nc(N)[n+]1[O-] [MINOXIDIL] |  |  | −0.292 | 0.817 | 
40 | CCCCCCCCCCCCCCC[C@H](O)[C@@H](N)CO (racemic) [DL-DIHYDROSPHINGOSINE] | 0.076 | 1.054 |  |  | 
41 | CCCCC[C@H](O)/C=C/[C@@H]1[C@@H](CC(=O)CCCCC(=O)O)[C@@H](O)C[C@H]1O [6-KETO-PROSTAGLANDIN F1a] |  |  | −0.435 | 0.740 | 
42 | CC/C=C\C/C=C\C/C=C\CCCCCCCCCCCC(=O)O [DOCOSATRIENOIC ACID (22:3 n-3)] | −0.055 | 0.963 |  |  | 
43 | C/C=C1\[C@H]2C=C(C)C[C@]1(N)c1ccc(=O)[nH]c1C2 [Huperzine A [(−)-Huperzine A]] |  |  | −0.641 | 0.641 | 
44 | CC1=NS(=O)(=O)c2cc(Cl)ccc2N1 [DIAZOXIDE] |  |  | −0.257 | 0.837 | 
45 | CCCCC[C@H](O)/C=C/[C@H]1C=CC(=O)[C@@H]1CCCCCCC(=O)O [PROSTAGLANDIN A1] |  |  | −0.522 | 0.696 | 
46 | CCCCC[C@H](O)/C=C/C1=C(CCCCCCC(=O)O)C(=O)CC1 [PROSTAGLANDIN B1] |  |  | −0.408 | 0.753 | 
